Experimental data: patent publication US20250295693A1, “HYBRID TUMOR/CANCER THERAPY BASED ON TARGETING THE RESOLUTION OF OR INDUCING TRANSCRIPTION-REPLICATION CONFLICTS (TRCS)” (Julius-Maximilians-Universität Würzburg, priority 2021, published 2025)
Entries after “also recorded” stand apart in the source; their conditions may differ.

Columns and labels:
[1] = test system: pancreas carcinoma cells; assay: Microscopy-based siRNA screen for DNA damage in pancreas carcinoma cells; format: cell-based; conditions: siRNA hits, low concentration of ATR inhibitor
From the text: FIG. 1. […] Similar assays (not shown) establish that CDK12 acts downstream of PAF1 in this pathway. e: DNA damage and colony assays in response to combined inhibition of CDK12 and ATR.
Targeting the mechanisms that resolve TRCs is considered a viable strategy to inflict tumor cell-specific DNA damage and/or to sensitize tumors to immune cell-mediated killing. Several of the mechanisms described herein appear to be specific for MYCN-driven tumors. For example, (c-)MYC (herein also just “MYC”) binds only very weakly to Aurora-A (Dauch, Nat Med 22, 2016, 744-53). Therefore, pathways have been identified that resolve TRCs in models of MYC driven tumors, which encompasses the vast majority of all tumors. Specifically, there was a focus on conflicts in a cell line established from the KPC model of pancreas carcinoma (Hingorani, loc.cit.). This reflects human PDAC. In this model, an siRNA screen of 86 candidate genes was performed using several parallel microscope-based assays to measure the occurrence of TRCs (FIG. 1).

[2] = test system: CDK12 kinase; conditions: cited from earlier work
[3] = biological target: Aurora-A alleles, T217D and T217E (Homo sapiens, UniProt O14965, T217D); conditions: cited from earlier work
[4] = test system: MYC protein; assay: Immunoblot of MYC protein in human tumor cells; format: cell-based; conditions: 24 h treatment
Experimental: FIG. 14. […] A: Immunoblot of tumor cells after 24 h treatment with Cymarin. B: Quantification of MYC protein levels in human pancreatic tumor cells and colorectal tumor cells.
(§1) After treatment for 24 h, cells were harvested in RIPA buffer containing protease and phosphatase inhibitor cocktails. The protein concentration was determined using BCA or Bradford assay. 15 μg of protein was loaded on a 10% SDS gel. After electrophoresis, proteins were transferred to 0.45 μm PVDF membrane and incubated with primary antibodies at 4° C. overnight. The signal was detected using peroxidase-conjugated species-specific secondary antibodies and visualized at LAS-4000 Luminescent Image Analyzer (Fujifilm).
An immunoblot of tumor cells after 24 h treatment with cymarin was made (FIG. 14A). Quantification of MYC protein levels in human pancreatic tumor cells and colorectal tumor cells was performed (FIG. 14B).

[5] = test system: MYC; assay: MYC expression in cells with ectopic expression of murine ATP1A1; format: cell-based
Experimental: FIG. 15. The effect of CG on MYC protein levels is mediated by inhibition of the NA/K pump. A: Depletion of the ATP1A1 subunit of the NA/K pump leads to the reduction of MYC protein levels. B: Ectopic expression of murine ATP1A1 renders the expression of MYC insensitive from the addition of cymarin, a prototypical KG.
as §1
Further, it was shown that the depletion of the ATP1A1 subunit of the NA/K pump leads to the reduction of MYC protein levels (FIG. 15A).

[6] = test system: human LS174 colo-rectal tumor cells; assay: Extracellular acidification rate (lactate secretion), Seahorse XF96; format: cell-based
[7] = test system: RPA194 and RAD9; assay: Proximity ligation assays for RPA194 and RAD9; format: cell-based
From the text: (§2) Deregulation of the WNT pathway in CRC not only deregulates transcription by RNAPII, but also by RNA polymerase I, which transcribes ribosomal RNAs in the nucleolus; this leads to enhanced synthesis of ribosomal RNA (Morral, Cell stem cell 26, 2020, 845-61). This is mediated by a beta-catenin dependent upregulation of multiple components of the ribosomal RNA synthesis machinery (FIG. 4a). Further to these observations, the effect of CX-5461, an inhibitor of RNA polymerase I transcription on the growth of CRC metastases, was analyzed. […] This observation was confirmed. […] Since there is an ongoing debate on the primary mechanism of CX-5461 action (Bruno, PNAS 117, 2020, 4053-60; Sanij, Nat Commun 11, 2020, 2641; Xu, Nat Commun 8, 2017, 14432), genetic work to validate its precise mechanism of action, and to further confirm that combining POL1 and ATR inhibition is a valid strategy to induce TRCs, is performed.

[8] = test system: murine CRC organoids; assay: Growth of CRC organoids, CX-5461 plus ATR inhibitor; format: cell-based; conditions: low concentrations of CX-5461 combined with ATR inhibitor (AZD6738)
From the text: as §2

[9] = test system: human CRC cell lines; assay: Colony assays of CRC cells in culture; format: cell-based; conditions: low concentrations of CX-5461 combined with ATR inhibitor (AZD6738); p53-independent
From the text: as §2

[10] = test system: phosphoKap1; assay: EdU incorporation/Hoechst plots with phosphoKap1 staining (DNA damage in S-phase); format: cell-based; conditions: b279: in conjunction with ATR inhibition
From the text: as §2

Aurora-A alleles, T217D and T217E, sequence (O14965 whole entry T217D): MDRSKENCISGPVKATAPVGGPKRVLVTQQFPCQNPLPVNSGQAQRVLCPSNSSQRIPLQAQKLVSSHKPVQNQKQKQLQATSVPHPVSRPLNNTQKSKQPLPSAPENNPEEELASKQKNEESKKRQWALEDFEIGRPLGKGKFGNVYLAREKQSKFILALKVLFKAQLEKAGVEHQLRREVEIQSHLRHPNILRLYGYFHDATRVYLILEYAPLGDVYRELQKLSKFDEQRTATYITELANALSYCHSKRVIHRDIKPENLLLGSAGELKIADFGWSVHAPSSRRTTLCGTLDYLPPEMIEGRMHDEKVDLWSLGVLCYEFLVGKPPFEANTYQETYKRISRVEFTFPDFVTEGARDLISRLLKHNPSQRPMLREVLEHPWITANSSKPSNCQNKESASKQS

Structure (SMILES): C[C@@H]1COCCN1c1cc(C2([S@](C)(=N)=O)CC2)nc(-c2cc[nH]c3nccc2-3)n1 [AZD6738]
- DNA damage [1]: strongly increased DNA damage

Structure (SMILES): Cn1cc(-n2cnc3c(NCc4nc5cc(Cl)c(Cl)cc5[nH]4)nc(N4CCOCC4)nc32)cn1 [SR4835]
- inhibition of the CDK12 kinase [2]: specific and potent inhibitor

Structure (SMILES): COc1cc(Nc2ncc3c(n2)-c2ccc(Cl)cc2C(c2c(F)cccc2OC)=NC3)ccc1C(=O)O [Alisertib]
- resistance of cells [3]: resistant

Structure (SMILES): CO[C@H]1C[C@H](O[C@H]2CC[C@]3(C=O)[C@H]4CC[C@]5(C)[C@@H](C6=CC(=O)OC6)CC[C@]5(O)[C@@H]4CC[C@]3(O)C2)O[C@H](C)[C@H]1O [cymarin, Cymarin]
- amount of MYC protein [4]: reduce the amount of MYC protein
- expression of MYC on addition of cymarin [5]: insensitive
- extracellular acidification rate (lactate secretion) ([6]; LS174 cells): significantly reduced
- effect on extracellular acidification rate ([6]; overexpression of the murine 1 isoform of Na+/K+-ATPase): can be reduced

Structure (SMILES): Cc1cnc(CNC(=O)c2c(=O)c3ccc(N4CCCN(C)CC4)nc3n3c2sc2ccccc23)cn1 [CX-5461]
- conflicts with DNA replication: proximity between RPA194 and RAD9 [7]: increased proximity
- colony formation / growth of organoids [8]: suppression of growth; also recorded: almost completely suppressed
- colony formation [9]: suppression of growth; also recorded: almost completely suppressed
- DNA damage during DNA replication (S-phase) [10]: induction of DNA damage; also recorded: massive DNA damage
